Results from ChEMBL document CHEMBL5625247, “Tetrahydro-β-carboline derivatives as potent histone deacetylase 6 inhibitors with broad-spectrum antiproliferative activity” (Eur J Med Chem, 2023).
Activity calls are given as the source filed them. No cut-off for these calls is given here.

Assays:
[1] = target: T1, Protein deacetylase HDAC6 (Homo sapiens) (UniProt Q9UBN7); assay: Inhibition of HDAC6 in human RPMI-8226 cells assessed as increase in histone H3 acetylation at 1 to 10 uM incubated for 24 hrs by Western blot analysis; type: cell-based; details: dose 1-10 µM
T1 sequence (whole entry): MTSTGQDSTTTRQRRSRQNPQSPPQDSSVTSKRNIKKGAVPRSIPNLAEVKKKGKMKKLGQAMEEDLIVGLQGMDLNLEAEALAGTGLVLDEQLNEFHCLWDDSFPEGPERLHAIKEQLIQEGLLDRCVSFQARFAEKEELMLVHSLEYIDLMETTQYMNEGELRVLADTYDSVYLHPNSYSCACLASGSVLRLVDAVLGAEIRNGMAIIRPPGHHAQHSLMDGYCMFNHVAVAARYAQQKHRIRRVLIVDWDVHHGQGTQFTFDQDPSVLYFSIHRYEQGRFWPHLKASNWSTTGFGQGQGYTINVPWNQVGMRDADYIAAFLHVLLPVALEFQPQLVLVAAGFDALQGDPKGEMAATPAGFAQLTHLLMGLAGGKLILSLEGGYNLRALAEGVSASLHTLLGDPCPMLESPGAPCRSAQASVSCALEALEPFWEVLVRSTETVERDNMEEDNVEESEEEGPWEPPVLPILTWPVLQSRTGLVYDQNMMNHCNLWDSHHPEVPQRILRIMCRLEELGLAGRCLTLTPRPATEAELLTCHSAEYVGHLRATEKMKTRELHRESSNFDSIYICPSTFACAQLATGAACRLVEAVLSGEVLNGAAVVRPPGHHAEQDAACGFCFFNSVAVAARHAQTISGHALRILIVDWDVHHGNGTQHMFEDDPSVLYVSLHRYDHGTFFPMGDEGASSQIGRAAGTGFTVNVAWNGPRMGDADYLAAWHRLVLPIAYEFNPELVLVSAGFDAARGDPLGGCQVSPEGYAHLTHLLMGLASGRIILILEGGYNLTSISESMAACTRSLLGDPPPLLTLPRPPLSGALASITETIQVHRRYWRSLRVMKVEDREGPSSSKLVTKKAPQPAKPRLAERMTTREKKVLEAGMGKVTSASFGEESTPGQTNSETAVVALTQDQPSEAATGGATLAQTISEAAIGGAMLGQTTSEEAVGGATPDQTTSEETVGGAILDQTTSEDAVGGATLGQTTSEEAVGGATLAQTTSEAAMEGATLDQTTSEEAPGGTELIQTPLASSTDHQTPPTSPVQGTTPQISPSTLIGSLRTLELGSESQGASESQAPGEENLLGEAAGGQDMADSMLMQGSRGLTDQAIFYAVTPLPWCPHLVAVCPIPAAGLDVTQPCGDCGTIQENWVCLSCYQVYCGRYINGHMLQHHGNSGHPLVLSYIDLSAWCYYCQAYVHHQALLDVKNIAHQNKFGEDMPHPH

[2] = target: T1, Protein deacetylase HDAC6 (Homo sapiens); assay: Inhibition of HDAC6 in human RPMI-8226 cells assessed as increase in alpha-tubulin acetylation at 1 to 10 uM incubated for 24 hrs by Western blot analysis; type: cell-based; details: dose 1-10 µM
[3] = Half life in Sprague-Dawley rat at 3 mg/kg, po by LC-MS/MS analysis; type: ADME, organism-based; details: in vivo
[4] = AUC (0 to infinity) in Sprague-Dawley rat at 3 mg/kg, po by LC-MS/MS analysis; type: ADME, organism-based; details: in vivo
[5] = Cmax in Sprague-Dawley rat at 0.2 mg/kg, iv by LC-MS/MS analysis; type: ADME, organism-based; details: in vivo
[6] = Tmax in Sprague-Dawley rat at 3 mg/kg, po by LC-MS/MS analysis; type: ADME, organism-based; details: in vivo
[7] = AUC (0 to last) in Sprague-Dawley rat at 3 mg/kg, po by LC-MS/MS analysis; type: ADME, organism-based; details: in vivo
[8] = target: T2, Protein deacetylase HDAC6 (Homo sapiens, UniProt Q9UBN7); assay: Inhibition of HDAC6 (unknown origin) expressed in baculovirus infected in Sf9 cells using RHKKAc as substrate preincubated for 5 to 10 mins followed by substrate addition measured after 2 hrs by fluorescence based assay
T2 sequence (Q9UBN7 whole entry): T1 sequence (whole entry)

[9] = target: Class 1 histone deacetylase (Homo sapiens) (UniProt Q13547+O15379+Q92769+Q9BY41); assay: Inhibition of class 1 HDAC in human RPMI-8226 cells assessed as increase in alpha-tubulin acetylation at 1 to 10 uM incubated for 24 hrs by Western blot analysis; type: cell-based; details: dose 1-10 µM
Class 1 histone deacetylase (Homo sapiens), sequence (O15379 whole entry, looked up): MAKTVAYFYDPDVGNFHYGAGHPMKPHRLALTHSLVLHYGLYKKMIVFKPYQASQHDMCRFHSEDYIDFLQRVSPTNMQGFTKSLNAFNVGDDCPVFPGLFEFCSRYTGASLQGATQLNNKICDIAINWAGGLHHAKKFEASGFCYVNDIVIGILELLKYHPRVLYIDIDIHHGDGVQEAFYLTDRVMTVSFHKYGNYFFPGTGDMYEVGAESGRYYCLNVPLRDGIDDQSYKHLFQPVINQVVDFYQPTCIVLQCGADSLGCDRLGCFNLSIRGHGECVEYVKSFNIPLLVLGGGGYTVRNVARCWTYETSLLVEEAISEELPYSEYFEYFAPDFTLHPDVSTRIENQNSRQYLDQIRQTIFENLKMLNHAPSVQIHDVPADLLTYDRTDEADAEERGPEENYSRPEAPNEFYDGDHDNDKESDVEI
Class 1 histone deacetylase (Homo sapiens), sequence (Q13547 whole entry, looked up): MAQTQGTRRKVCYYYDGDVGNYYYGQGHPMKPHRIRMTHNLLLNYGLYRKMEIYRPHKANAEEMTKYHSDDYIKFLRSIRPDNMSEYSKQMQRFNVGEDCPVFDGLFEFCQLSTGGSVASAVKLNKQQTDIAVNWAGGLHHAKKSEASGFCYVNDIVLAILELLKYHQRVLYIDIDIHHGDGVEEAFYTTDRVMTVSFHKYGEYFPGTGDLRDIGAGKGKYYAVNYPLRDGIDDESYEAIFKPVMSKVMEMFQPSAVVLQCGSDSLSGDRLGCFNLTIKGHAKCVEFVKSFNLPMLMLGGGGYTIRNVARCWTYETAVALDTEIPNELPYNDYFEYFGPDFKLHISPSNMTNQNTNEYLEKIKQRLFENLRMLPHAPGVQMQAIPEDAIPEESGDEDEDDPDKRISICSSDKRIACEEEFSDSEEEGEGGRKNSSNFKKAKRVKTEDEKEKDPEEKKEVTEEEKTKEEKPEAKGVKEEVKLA
Class 1 histone deacetylase (Homo sapiens), sequence (Q92769 whole entry, looked up): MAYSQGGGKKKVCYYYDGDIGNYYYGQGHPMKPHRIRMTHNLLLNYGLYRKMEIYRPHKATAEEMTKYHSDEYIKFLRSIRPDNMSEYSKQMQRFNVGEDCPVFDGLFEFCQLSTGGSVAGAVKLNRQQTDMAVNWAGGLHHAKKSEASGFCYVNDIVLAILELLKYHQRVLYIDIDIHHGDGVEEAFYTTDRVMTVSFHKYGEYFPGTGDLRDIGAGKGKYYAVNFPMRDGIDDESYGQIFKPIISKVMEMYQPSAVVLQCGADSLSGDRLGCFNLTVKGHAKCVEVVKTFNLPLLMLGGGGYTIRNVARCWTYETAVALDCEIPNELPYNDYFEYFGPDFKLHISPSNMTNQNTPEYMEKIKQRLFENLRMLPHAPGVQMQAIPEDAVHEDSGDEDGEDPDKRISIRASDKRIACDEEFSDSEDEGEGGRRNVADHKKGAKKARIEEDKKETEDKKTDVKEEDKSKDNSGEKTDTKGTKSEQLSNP
Class 1 histone deacetylase (Homo sapiens), sequence (Q9BY41 whole entry, looked up): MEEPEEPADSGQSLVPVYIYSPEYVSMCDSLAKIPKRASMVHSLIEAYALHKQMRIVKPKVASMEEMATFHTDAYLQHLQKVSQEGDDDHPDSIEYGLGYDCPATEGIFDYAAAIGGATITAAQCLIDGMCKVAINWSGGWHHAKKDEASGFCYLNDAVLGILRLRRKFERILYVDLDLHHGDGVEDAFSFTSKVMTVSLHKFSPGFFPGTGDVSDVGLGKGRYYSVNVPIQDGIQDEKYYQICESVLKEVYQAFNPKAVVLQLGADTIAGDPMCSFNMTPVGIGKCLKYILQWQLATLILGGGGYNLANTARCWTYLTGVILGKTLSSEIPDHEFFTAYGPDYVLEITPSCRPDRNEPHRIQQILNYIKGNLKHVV

[10] = Clearance in Sprague-Dawley rat at 0.2 mg/kg, iv by LC-MS/MS analysis; type: ADME, organism-based; details: in vivo

O=C(NO)c1ccc(CNC(=O)[C@H]2Cc3c([nH]c4ccccc34)[C@H](c3ccc(Cl)cc3)N2)cc1
inhibition [1]: Active | inhibition [2]: Active | half-life [3]: 3.41 h | AUC(0-inf) [4]: 9.71 µM·h | Cmax [5]: 1020 nM | Tmax [6]: 1.54 h | AUC(0-t) [7]: 9.6 µM·h | IC50 [8]: 2.68 nM | inhibition [9]: Active | clearance [10]: 4.4 mL/min/kg
